From ChEMBL document CHEMBL4219183, “Novel purine benzimidazoles as antimicrobial agents by regulating ROS generation and targeting clinically resistant Staphylococcus aureus DNA groove” (Bioorg Med Chem Lett, 2018)
Values after ≈ are worked out from the molar mass of the structure shown.

Experiments:
Format in all cases: functional
Pseudomonas aeruginosa [1] = assay: Antibacterial activity against Pseudomonas aeruginosa ATCC 27853 after 24 hrs by two fold serial dilution method; conditions: ATCC 27853, 24 h
Pseudomonas aeruginosa [2] = assay: Antibacterial activity against Pseudomonas aeruginosa after 24 hrs by two fold serial dilution method
Staphylococcus aureus [3] = assay: Antibacterial activity against Staphylococcus aureus ATCC 29213 after 24 hrs by two fold serial dilution method; conditions: ATCC 29213, 24 h
Aspergillus fumigatus = assay: Antifungal activity against Aspergillus fumigatus after 24 hrs by two fold serial dilution method
Candida tropicalis = assay: Antifungal activity against Candida tropicalis after 24 hrs by two fold serial dilution method
Staphylococcus aureus [4] = assay: Antibacterial activity against Staphylococcus aureus after 24 hrs by two fold serial dilution method
Staphylococcus aureus [5] = assay: Antibacterial activity against Staphylococcus aureus ATCC 25923 after 24 hrs by two fold serial dilution method; conditions: ATCC 25923, 24 h
Candida albicans [6] = assay: Antifungal activity against Candida albicans after 24 hrs by two fold serial dilution method
Staphylococcus aureus [7] = assay: Antibacterial activity against methicillin-resistant Staphylococcus aureus N315 after 24 hrs by two fold serial dilution method; conditions: N315, 24 h
Enterococcus faecalis = assay: Antibacterial activity against Enterococcus faecalis after 24 hrs by two fold serial dilution method
Klebsiella pneumoniae = assay: Antibacterial activity against Klebsiella pneumoniae after 24 hrs by two fold serial dilution method
Candida albicans [8] = assay: Antifungal activity against Candida albicans ATCC 90023 after 24 hrs by two fold serial dilution method; conditions: ATCC 90023, 24 h
Escherichia coli [9] = assay: Antibacterial activity against Escherichia coli after 24 hrs by two fold serial dilution method
Escherichia coli [10] = assay: Antibacterial activity against Escherichia coli ATCC 25922 after 24 hrs by two fold serial dilution method; conditions: ATCC 25922, 24 h
Acinetobacter baumannii = assay: Antibacterial activity against Acinetobacter baumannii after 24 hrs by two fold serial dilution method
Candida parapsilosis = assay: Antifungal activity against Candida parapsilosis ATCC 22019 after 24 hrs by two fold serial dilution method; conditions: ATCC 22019, 24 h

| SMILES | MIC (Pseudomonas aeruginosa [1]) [µg/mL] | MIC (Pseudomonas aeruginosa [2]) [µg/mL] | MIC (Staphylococcus aureus [3]) [µg/mL] | MIC80 (Aspergillus fumigatus) [µg/mL] | MIC80 (Candida tropicalis) [µg/mL] | MIC (Staphylococcus aureus [4]) [µg/mL] | MIC (Staphylococcus aureus [5]) [µg/mL] | MIC80 (Candida albicans [6]) [µg/mL] | MIC (Staphylococcus aureus [7]) [µg/mL] | MIC (Enterococcus faecalis) [µg/mL] | MIC (Klebsiella pneumoniae) [µg/mL] | MIC80 (Candida albicans [8]) [µg/mL] | MIC (Escherichia coli [9]) [µg/mL] | MIC (Escherichia coli [10]) [µg/mL] | MIC (Acinetobacter baumannii) [µg/mL] | MIC80 (Candida parapsilosis) [µg/mL] |
| --- | --- | --- | --- | --- | --- | --- | --- | --- | --- | --- | --- | --- | --- | --- | --- | --- |
| c1nc(N2CCCCC2)c2nc[nH]c2n1 | 64 (≈ 315 µM) | 256 (≈ 1260 µM) | 512 (≈ 2520 µM) | 64 (≈ 315 µM) | 256 (≈ 1260 µM) | 32 (≈ 157 µM) | 512 (≈ 2520 µM) | 128 (≈ 630 µM) | 512 (≈ 2520 µM) | 256 (≈ 1260 µM) | 256 (≈ 1260 µM) | 128 (≈ 630 µM) | 256 (≈ 1260 µM) | 256 (≈ 1260 µM) | 128 (≈ 630 µM) | 512 (≈ 2520 µM) |
| CCCCCCn1c(Cn2cnc3c(N4CCCCC4)ncnc32)nc2ccccc21 | 128 (≈ 307 µM) | 128 (≈ 307 µM) | 512 (≈ 1230 µM) | 128 (≈ 307 µM) | 64 (≈ 153 µM) | 16 (≈ 38.3 µM) | 64 (≈ 153 µM) | 64 (≈ 153 µM) | 64 (≈ 153 µM) | 128 (≈ 307 µM) | 64 (≈ 153 µM) | 32 (≈ 76.6 µM) | 256 (≈ 613 µM) | 16 (≈ 38.3 µM) | 64 (≈ 153 µM) | 64 (≈ 153 µM) |
| CCCCCCCCn1c(Cn2cnc3c(N4CCOCC4)ncnc32)nc2ccccc21 | 128 (≈ 286 µM) | 256 (≈ 572 µM) | 256 (≈ 572 µM) | 512 (≈ 1140 µM) | 256 (≈ 572 µM) | 512 (≈ 1140 µM) | 512 (≈ 1140 µM) | 256 (≈ 572 µM) | 512 (≈ 1140 µM) | 256 (≈ 572 µM) | 256 (≈ 572 µM) | 64 (≈ 143 µM) | 256 (≈ 572 µM) | 256 (≈ 572 µM) | 256 (≈ 572 µM) | 512 (≈ 1140 µM) |
| c1ccc2c(c1)ncn2CCn1cnc2c(N3CCOCC3)ncnc21 | 256 (≈ 733 µM) | 128 (≈ 366 µM) | 256 (≈ 733 µM) | 256 (≈ 733 µM) | 256 (≈ 733 µM) | 256 (≈ 733 µM) | 256 (≈ 733 µM) | 256 (≈ 733 µM) | 256 (≈ 733 µM) | 128 (≈ 366 µM) | 256 (≈ 733 µM) | 128 (≈ 366 µM) | 256 (≈ 733 µM) | 128 (≈ 366 µM) | 256 (≈ 733 µM) | 128 (≈ 366 µM) |
| Clc1ccccc1Cn1c(Cn2cnc3c(N4CCOCC4)ncnc32)nc2ccccc21 | 64 (≈ 139 µM) | 128 (≈ 278 µM) | 32 (≈ 69.6 µM) | 256 (≈ 557 µM) | 256 (≈ 557 µM) | 256 (≈ 557 µM) | 256 (≈ 557 µM) | 256 (≈ 557 µM) | 512 (≈ 1110 µM) | 256 (≈ 557 µM) | 64 (≈ 139 µM) | 256 (≈ 557 µM) | 128 (≈ 278 µM) | 256 (≈ 557 µM) | 256 (≈ 557 µM) | 256 (≈ 557 µM) |
| CCCCCCCCCCCCCCCCn1c(Cn2cnc3c(N4CCOCC4)ncnc32)nc2ccccc21 | 256 (≈ 457 µM) | 512 (≈ 915 µM) | 256 (≈ 457 µM) | 256 (≈ 457 µM) | 128 (≈ 229 µM) | 64 (≈ 114 µM) | 256 (≈ 457 µM) | 128 (≈ 229 µM) | 512 (≈ 915 µM) | 32 (≈ 57.2 µM) | 128 (≈ 229 µM) | 512 (≈ 915 µM) | 512 (≈ 915 µM) | 256 (≈ 457 µM) | 256 (≈ 457 µM) | 128 (≈ 229 µM) |
| C=CCn1c(Cn2cnc3c(N4CCOCC4)ncnc32)nc2ccccc21 | 128 (≈ 341 µM) | 256 (≈ 682 µM) | 128 (≈ 341 µM) | 128 (≈ 341 µM) | 256 (≈ 682 µM) | 256 (≈ 682 µM) | 256 (≈ 682 µM) | 512 (≈ 1360 µM) | 512 (≈ 1360 µM) | 128 (≈ 341 µM) | 128 (≈ 341 µM) | 128 (≈ 341 µM) | 256 (≈ 682 µM) | 256 (≈ 682 µM) | 128 (≈ 341 µM) | 32 (≈ 85.2 µM) |
| Cc1nc2ccccc2n1CCn1cnc2c(N3CCOCC3)ncnc21 | 256 (≈ 704 µM) | 256 (≈ 704 µM) | 128 (≈ 352 µM) | 256 (≈ 704 µM) | 256 (≈ 704 µM) | 256 (≈ 704 µM) | 32 (≈ 88.1 µM) | 128 (≈ 352 µM) | 512 (≈ 1410 µM) | 256 (≈ 704 µM) | 256 (≈ 704 µM) | 128 (≈ 352 µM) | 512 (≈ 1410 µM) | 256 (≈ 704 µM) | 256 (≈ 704 µM) | 512 (≈ 1410 µM) |
| Clc1cccc(Cn2c(Cn3cnc4c(N5CCOCC5)ncnc43)nc3ccccc32)c1 | 256 (≈ 557 µM) | 512 (≈ 1110 µM) | 128 (≈ 278 µM) | 256 (≈ 557 µM) | 128 (≈ 278 µM) | 256 (≈ 557 µM) | 128 (≈ 278 µM) | 512 (≈ 1110 µM) | 512 (≈ 1110 µM) | 128 (≈ 278 µM) | 128 (≈ 278 µM) | 128 (≈ 278 µM) | 256 (≈ 557 µM) | 256 (≈ 557 µM) | 256 (≈ 557 µM) | 512 (≈ 1110 µM) |
